This note sets out measurements from paper PMC3463587, “A Series of Beta-Carboline Derivatives Inhibit the Kinase Activity of PLKs” (PLoS ONE, 2012).

For assay [1], the system named is HeLa cells. As to the kind of experiment: MTT cell proliferation assay, HeLa. The class given is cell-based. To be noted: Homo sapiens, 48 hr. The text has this: (§1) BI2536 was purchased from Selleck (Selleck, USA).
(Tetrazolium assays rely on reduction of a dye to a coloured formazan, in cell work by metabolically active cells.)

Assay [2] relates to PC3 cells. As to the kind of experiment: MTT cell proliferation assay, PC3. The class given is cell-based. To be noted: Homo sapiens, PC-3, 48 hr.
Source text: as §1

Assay [3] has as its system HepG2 cells. As to the kind of experiment: MTT cell proliferation assay, HepG2. The class given is cell-based. To be noted: Homo sapiens, 48 hr.
Source text: as §1

The test system of assay [4] is MG63 cells. Description: MTT cell proliferation assay, MG63. The class given is cell-based. Conditions: Homo sapiens, MG-63, 48 hr.
Source text: as §1

Assay [5] has as its system four cancer cell lines (HepG2, MG63, HeLa and PC3). Description: Growth inhibition of four cancer cell lines. The class given is cell-based, Human. An excerpt: In order to find more efficient antitumor small molecules targeting PLK1, we synthesized additional 18 beta-carboline compounds and the structures of these compounds are shown in Figure 1. The growth inhibition of four cancer cell lines (HepG2, MG63, HeLa and PC3) by these compounds was examined. […] We selected DH281, DH285 and DH287 for further studies.

Assay [6] deals with cdc5-2 mutant yeast cells. Description: Yeast growth inhibition (MIC), cdc5-2 mutant. Conditions: 10 µg/ml, 25°C.
Procedure: (§2) The Cdc5 kinase is the functional homologue of PLK1 in budding yeast and the incubation of cdc5-2 mutants at 37°C impairs the kinase activity and stops cell growth. […] We also compared the sensitivity of wild-type and cdc5-2 mutant cells to the selected compounds at different concentrations. […] The temperature sensitive cdc5-2 mutants and wild-type strains were used. […] After incubation at 25°C for 24 hr, the growth of the yeast cells was determined by measuring OD600.
Assay [7] relates to wild-type yeast cells. Description: Yeast growth inhibition (MIC), wild-type. To be noted: 10 µg/ml, 25°C.
Procedure: as §2

SMILES strings stand for the structures.

Take `Fc1ccc(C[n+]2ccc3c4ccccc4n(CCCc4ccccc4)c3c2)cc1` [DH274]: the concentration for half-maximal inhibition (IC50) in assay [1] was found to be 5.73 ± 0.18 µM; in assay [2], 6.07 ± 0.27 µM; in assay [3], 7.37 ± 0.26 µM; in assay [4] it was 6.38 ± 0.19 µM.

Take `Clc1cccc(Cn2c3ccccc3c3cc[n+](Cc4cccc(Cl)c4)cc32)c1` [DH276]: the 50% inhibitory concentration (IC50) in assay [1] is 6.04 ± 0.17 µM; in assay [2] it was 6.65 ± 0.4 µM; in assay [3], 11.2 ± 0.22 µM; in assay [4] it was 7.3 ± 0.06 µM.

Regarding `Clc1cccc(C[n+]2ccc3c4ccccc4n(CCCc4ccccc4)c3c2)c1` [DH273], the half-maximal inhibitory concentration (IC50) in assay [1] was determined as 3.77 ± 0.25 µM; in assay [2], 3.86 ± 0.12 µM; in assay [3], 5.08 ± 0.38 µM; in assay [4], 4.21 ± 0.45 µM.

For the molecule `Cc1nccc2c3ccc(OCc4ccc(F)cc4)cc3n(CCCc3ccccc3)c12` [DH279], the half-maximal inhibitory concentration (IC50) in assay [1], in assay [2], in assay [3] and in assay [4] was more than 100 µM in each case. In addition, in assay [5], the “antitumor activity (growth inhibition)” value is recorded as “did not show obvious antitumor activity”.

Consider `Cc1nccc2c3ccc(OCc4cccc(Cl)c4)cc3n(CCCc3ccccc3)c12` [DH278], for which the IC50 in assay [1] was 63.14 ± 0.47 µM; in assay [2], 80.21 ± 0.31 µM; in assay [3], more than 100 µM; in assay [4] it was more than 150 µM. Also, in assay [5], the “antitumor activity (growth inhibition)” value is “did not show obvious antitumor activity”.

As for `Fc1ccc(C[n+]2ccc3c4ccccc4n(Cc4cccc(Cl)c4)c3c2)cc1` [DH275], the concentration for half-maximal inhibition (IC50) in assay [1] was determined as 5.83 ± 0.03 µM; in assay [2], 6.36 ± 0.11 µM; in assay [3], 10.4 ± 0.37 µM; in assay [4], 7.32 ± 0.22 µM.

Turning to `Cc1c2c(cc[n+]1Cc1ccccc1)c1ccc(OCc3cccc(Cl)c3)cc1n2CCCc1ccccc1` [DH280], the half-maximal inhibitory concentration (IC50) in assay [1] came out at 0.99 ± 0.14 µM; in assay [2], 2.34 ± 0.06 µM; in assay [3] it was 2.59 ± 0.16 µM; in assay [4], 1.86 ± 0.33 µM. Moreover, the “antitumor activity (growth inhibition)” value in assay [5] was “very strong growth inhibition”.

Turning to `Fc1ccc(Cn2c3ccccc3c3cc[n+](Cc4ccccc4)c(Cc4ccccc4)c32)cc1` [DH271], the IC50 in assay [1] turned out to be 3.86 ± 0.44 µM; in assay [2], 8.38 ± 0.24 µM; in assay [3], 4.01 ± 0.1 µM; in assay [4], 5.97 ± 0.06 µM.

With `c1ccc(CCCn2c3ccccc3c3cc[n+](Cc4ccccc4)cc32)cc1` [DH272], the IC50 in assay [1] amounted to 8.16 ± 0.37 µM; in assay [2], 22.1 ± 0.43 µM; in assay [3], 12.47 ± 0.12 µM; in assay [4], 12.8 ± 0.28 µM.

Regarding `Clc1cccc(Cn2c3ccccc3c3cc[n+](Cc4ccccc4)cc32)c1` [DH277], the 50% inhibitory concentration (IC50) was determined as 8.48 ± 0.23 µM in assay [1], 10.8 ± 0.21 µM in assay [2], 18.8 ± 0.29 µM in assay [3] and 20.4 ± 0.16 µM in assay [4].

For the molecule `CC[C@@H]1C(=O)N(C)c2cnc(Nc3ccc(C(=O)NC4CCN(C)CC4)cc3OC)nc2N1C1CCCC1` [BI2536, reference compound], the “growth inhibition of cdc5-2 mutant cells” value in assay [6] is given as “complete growth inhibition”. Further, in assay [7], the “growth of wild-type cells” value is reported as “unaffected”.

On to `CCCCn1c2ccccc2c2cc(C(=O)NCCO)nc(C)c21` [DH286], for which the IC50 is 65.81 ± 0.23 µM in assay [1], 72.96 ± 0.53 µM in assay [2], more than 150 µM in assay [3] and 46.09 ± 0.37 µM in assay [4]. Also, the “antitumor activity (growth inhibition)” value in assay [5] was “did not show obvious antitumor activity”.

As for `Cc1nccc2c3ccc(OCc4ccccc4)cc3n(Cc3ccccc3)c12` [DH288], the IC50 in assay [1], in assay [2], in assay [3] and in assay [4] was more than 100 µM each time. Moreover, the “antitumor activity (growth inhibition)” value in assay [5] is “did not show obvious antitumor activity”.

On to `COc1ccc2c3ccnc(C)c3n(Cc3cccc(Cl)c3)c2c1` [DH145], for which the IC50 was found to be 40.5 ± 0.14 µM in assay [1], 75.39 ± 0.16 µM in assay [2], 68.45 ± 0.02 µM in assay [3] and 73.12 ± 0.31 µM in assay [4]. Further, the “antitumor activity (growth inhibition)” value in assay [5] is recorded as “did not show obvious antitumor activity”.

The term IC50 denotes the concentration needed to halve the response being measured. A lower IC50 goes with greater potency in that assay.
